In patent US20160024051A1, “SALTS AND SOLID FORMS OF ISOQUINOLINONES AND COMPOSITION COMPRISING AND METHODS OF USING THE SAME” (INFINITY PHARMACEUTICALS, INC., priority 2013, published 2016):
Structures can show the parent of a compound that is named as a salt. Where two headings read alike, the source gives them in different places.

Experiments:
Dissolution = type: physicochemical
Protocol: The dissolution rate for the hydrate was about 80% in 15 min at pH 1.2 and about 20% in 60 min at pH 2.5. The dissolution rate of the bis-sulfuric acid salt was 100% in 15 min at both pH 1.2 and pH 2.5.

[1] = Stability of Hydrate Form 2: maturation in water or acetic acid: water 1:3 at constant temperature; type: physicochemical; conditions: 40 hours
Protocol: Both solids obtained from maturation at 25° C.

[2] = 2-Week comparative stability studies; type: physicochemical; conditions: 2 weeks; for change in appearance: 5° C. (closed), ambient (closed), ambient (closed-exposed to light), ambient (open), 60° C. (closed), RT/75% RH (open), 40° C./75% RH (open); for change of water content, as determined by KF: all seven storage conditions
Protocol: (closed); (ii) ambient (closed); (iii) ambient (closed-exposed to light); (iv) ambient (open); (v) 60° C. (closed); (vi) RT/75% RH (open); and (vii) 40° C./75% RH (open).

[3] = Solubility of free base hydrate and salts versus pH (Table 24); type: physicochemical
[4] = Storage at 25° C./93% RH for 1 week, re-analysis by XRPD/HPLC; type: physicochemical; conditions: 1 week
[5] = Gravimetric vapour sorption (GVS); type: physicochemical
Protocol: Sorption isotherms were obtained using a Hiden IGASorp moisture sorption analyser, controlled by CFRSorp software. The sample temperature was maintained at 25° C. by a Huber re-circulating water bath. The humidity was controlled by mixing streams of dry and wet nitrogen, with a total flow rate of 250 ml/min. The relative humidity (RH) was measured by a calibrated Vaisala RH probe (dynamic range of 0-95% RH), located near the sample. The weight change, (mass relaxation) of the sample as a function of % RH was constantly monitored by the microbalance (accuracy ±0.001 mg). Typically 10-20 mg of sample was placed in a tared mesh stainless steel basket under ambient conditions. The sample was loaded and unloaded at 40% RH and 25° C. (typical room conditions). A moisture sorption isotherm was performed as outlined below (2 scans giving 1 complete cycle). The standard isotherm was performed at 25° C. at 10% RH intervals over a 0-90% RH range.
The software uses a least squares minimisation procedure together with a model of the mass relaxation, to predict an asymptotic value. The measured mass relaxation value must be within 5% of that predicted by the software, before the next % RH value is selected. The minimum equilibration time was set to 1 hour and the maximum to 4 hours. The sample was recovered after completion of the isotherm and re-analysed by XRPD.

[6] = Solubility assessment using FB Hydrate Form 2; type: physicochemical
Protocol: The best solvent systems (clear solutions) were methanol:anisole 1:1 and DMSO (10 volumes, at RT), dioxane (10 volumes, 50° C.), chloroform (20 volumes, RT). […]

[7] = Polymorphism study: maturation (temperature cycling RT to 50° C.) in solvents, XRPD; type: physicochemical
Protocol: One of 21 solvents was added to each vial in a number of aliquots (up to 30 volumes), with shaking. All the samples were then placed under maturation between RT to 50° C. (4 hours at each temperature) for 3 days. After maturation the samples were analysed by XRPD. Clear solutions were cooled to −20° C. (freezer). If no precipitation occurred samples were evaporated at RT.
Samples were placed under maturation between RT-50° C. (4 hours cycle) for 3 days. After maturation the samples were analyzed by XRPD. Clear solutions were then cooled to −20° C. (freezer). If no precipitation occurred, samples were evaporated at RT.
(§1) The corresponding solvents and solvent mixtures were added in portions of (a total of) 5, 10, 20, and 30 volumes at 50° C., with shaking, aiming for clear solutions. After each addition, the vials were allowed to shake for 20 minutes, after which observations were made. Solutions were allowed to evaporate, whereas slurries were set for 8 hour temperature cycling maturation, between RT and 50° C., for 5 days.
The oils obtained by solvent evaporation were used for the maturation screen. Anhydrous solvents (5 volumes; 100 μL) were used in order to minimise the amount of water present. Any solutions were allowed to slowly evaporate, whereas slurries were set for 8 hour temperature cycling maturation, between RT and 50° C. […] These were matured for a further 24 hours before performing XRPD analysis.
The selected solvents and solvent mixtures (5 to 20 volumes) were added with stirring. Any solutions were allowed to slowly evaporate, whereas slurries were set for 8 hour temperature cycling maturation, between RT and 50° C., for 2 days.
Crystals were ground in order to analyse them by XRPD. Suspensions were set for temperature cycling for a total of five days after which time XRPD analysis was carried out.

[8] = Storage at 40° C./75% RH (elevated humidity) for 1 week, re-analysis by XRPD/HPLC; conditions: salt screen solids, 1 week, XRPD pattern or observation
Protocol: The crystalline solids were filtered, dried at ambient conditions, and stored at 40° C./75% RH for 1 week and analyzed by ^1H NMR/IC.
Samples from the screen using amorphous free base Compound 1 were analysed by ^1H-NMR and DSC, and re-analysis by XRPD was also carried out after drying at 50° C./vacuum and storage at 40° C./75% RH (the same sample was dried and stored at elevated humidity).

[9] = PK properties in non-clinical animal species (all species); type: in vivo, CD-1 mouse, Wistar rat, Cyno monkey, Beagle dog; conditions: animal pharmacology models and non-clinical toxicology species
Protocol: For example, Compound 1 bis-hydrogen sulfate monohydrate was evaluated in CD-1 mouse, Wistar rat, Cyno monkey, and Beagle dog. Cross species allometric scaling of CL (drug clearance) and Vss (volume at steady state) predicts low CL, high Vss and long T112 for Compound 1 in humans.

[10] = Solubility of bis-sulfuric acid salt Form 1 in solvents at 50° C.; type: physicochemical
Protocol: as §1, with “Bis-Sulfuric acid salt Form 1 of Compound 1 (ca. 35 mg) was weighed into vials. The” for “The”

[11] = Thermodynamic aqueous solubility; type: physicochemical; conditions: salts scaled-up at 0.5 gram
[12] = Density and flowability (Hausner ratio, Carr index); type: physicochemical
Excerpt: The Hausner ratio and the Carr index are correlated to the flowability of a powder or granular material. […] The flowability of both salts are acceptable for manufacturing.

COc1cc(-c2cccc3cc([C@H](C)Nc4nc(N)ncc4C#N)n(-c4ccccc4)c(=O)c23)ccn1 [Form 2 of the free base of Compound 1]
dissolution rate (Dissolution; in 15 min at pH 1.2, listed as hydrate): about 80%
dissolution rate (Dissolution; in 60 min at pH 2.5): about 20%
XRPD form after maturation ([1]; acetic acid: water 1:3, 25° C.): unchanged Form 2
XRPD form after maturation ([1]; acetic acid: water 1:3, 90° C.): some evidence of the acetic acid solvate Form 6 mixed with a majority of Form 2
XRPD form after maturation ([1]; pure water, 25° C.): unchanged Form 2
XRPD form after maturation ([1]; pure water, 90° C.): Form 2
change in appearance [2]: No change in appearance
change of water content, as determined by KF [2]: No significant change
Solubility ([3]; 0.1N HCl, 37° C., at saturation): 16000 µg/mL
Solubility ([3]; Simulated Gastric Fluid): 8130 µg/mL
Solubility ([3]; Simulated Intestinal Fluid): 2 µg/mL
Solubility ([3]; citrate buffer, pH 2.5): 0.2-0.3 mg/mL ^
stability on storage at 25° C./93% RH [4]: stable
stability on storage at 25° C./93% RH ([4]; listed as Free base Form 2): mainly the same pattern with a few differences
GVS: changes in the XRPD after the experiment [5]: very slight changes
GVS: moisture uptake on loading ([5]; between 40-50% RH): 1 % w/w
GVS: moisture content on desorption ([5]; between 90-10% on desorption): 5.7 % w/w
volumes of solvent giving a clear solution ([6]; 2-methyltetrahydrofuran): 50 volumes
volumes of solvent giving a clear solution ([6]; DCM): 100 volumes
volumes of solvent giving a clear solution ([6]; DCM:methanol 1:1): 100 volumes
volumes of solvent giving a clear solution ([6]; DME): 100 volumes
volumes of solvent giving a clear solution ([6]; DMSO, at RT): 10 volumes
volumes of solvent giving a clear solution ([6]; THF): 100 volumes
volumes of solvent giving a clear solution ([6]; THF:5% water): 50 volumes
volumes of solvent giving a clear solution ([6]; acetonitrile/5% water): 100 volumes
volumes of solvent giving a clear solution ([6]; chloroform, RT): 20 volumes
volumes of solvent giving a clear solution ([6]; dioxane, 50° C.): 10 volumes
volumes of solvent giving a clear solution ([6]; ethanol:anisole): 50 volumes
volumes of solvent giving a clear solution ([6]; methanol): 100 volumes
volumes of solvent giving a clear solution ([6]; methanol:anisole 1:1, at RT): 10 volumes
XRPD form after maturation in acetic acid: water 1:1 ([7]; three days, listed as hydrate Form 2 of free base Compound 1): did not show any changes in form

COc1cc(-c2cccc3cc([C@H](C)Nc4nc(N)ncc4C#N)n(-c4ccccc4)c(=O)c23)ccn1 [bis-sulfuric acid monohydrate salt of (S)-2-amino-4-((1-(8-(2-methoxypyridin-4-yl)-1-oxo-2-phenyl-1,2-dihydroisoquinolin-3-yl)ethyl)amino)pyrimidine-5-carbonitrile]
Storage 40° C./75% RH [8]: salt Pattern 1
oral pharmacokinetics [9]: good oral pharmacokinetics
dissolution rate (Dissolution; in 15 min at pH 1.2, listed as bis-sulfuric acid salt): 100%
dissolution rate (Dissolution; in 15 min at pH 2.5): 100%
change in appearance [2]: No change in appearance
change of water content, as determined by KF [2]: No significant change
volumes of solvent giving a clear solution ([10]; acetic acid/water 1:3 at 50° C.): 5 volumes
volumes of solvent giving a clear solution ([10]; methanol at 50° C.): 5 volumes
Solubility ([3]; Simulated Gastric Fluid, thermodynamic from solid, read-out: Solubility): > 17000 µg/mL
Solubility ([3]; Simulated Intestinal Fluid, fassgf or other biorelevant, thermodynamic from solid, read-out: Solubility): 40 µg/mL
Solubility ([3]; aqueous buffer, thermodynamic from solid, citrate buffer, pH 2.5, at 37° C., read-out: Solubility): > 12000 µg/mL
Solubility ([3]; aqueous buffer, thermodynamic from solid, citrate buffer, pH 2.5, at RT, read-out: Solubility): > 12000 µg/mL
Solubility ([3]; aqueous buffer, thermodynamic from solid, pH 1.65, 37° C., read-out: Solubility): > 12000 µg/mL
Solubility ([3]; aqueous buffer, thermodynamic from solid, pH 1.65, RT, read-out: Solubility): > 12000 µg/mL
Solubility ([3]; aqueous buffer, thermodynamic from solid, pH 1.9, 37° C., read-out: Solubility): > 12000 µg/mL
Solubility ([3]; aqueous buffer, thermodynamic from solid, pH 1.9, RT, read-out: Solubility): > 12000 µg/mL
Solubility ([3]; aqueous buffer, thermodynamic from solid, pH 2.5, 37° C., read-out: Solubility): > 12000 µg/mL
Solubility ([3]; aqueous buffer, thermodynamic from solid, pH 2.5, RT, read-out: Solubility): > 12000 µg/mL
Solubility ([3]; aqueous buffer, thermodynamic from solid, pH 3.0, 37° C., read-out: Solubility): 3450 µg/mL
Solubility ([3]; aqueous buffer, thermodynamic from solid, pH 3.0, RT, read-out: Solubility): 1580 µg/mL
Solubility ([3]; aqueous buffer, thermodynamic from solid, pH 3.8, 37° C., read-out: Solubility): 280 µg/mL
Solubility ([3]; aqueous buffer, thermodynamic from solid, pH 3.8, RT, read-out: Solubility): 290 µg/mL
Solubility ([3]; simulated gastric fluid, thermodynamic from solid, 0.1N HCl, 37° C., at saturation, read-out: Solubility): > 90000 µg/mL
Solubility ([3]; thermodynamic from solid, Water (pH 1.16), read-out: Solubility): > 60000 µg/mL
solubility compared to the hydrate ([3]; up to pH 3): significantly higher solubility
GVS Single cycle ([5]; hygroscopicity in words, 25° C.): Slightly hygroscopic
Thermodynamic aqueous solubility [11]: > 51 mg/mL
flowability compared to the hydrate [12]: improved flowability
changes on maturation of slurries ([7]; 30 volumes of solvent, RT to 50° C., five days, all solvents other than acetic acid/water, methanol, ethanol/water): did not show any changes
